Experimental data taken from publication PMC10384862, “[^212Pb]Pb-eSOMA-01: A Promising Radioligand for Targeted Alpha Therapy of Neuroendocrine Tumors” (Pharmaceuticals, 2023).
Like-named read-outs stand apart in the source and are kept apart here.

Legend:
[1] = In vitro stability in PBS; type: physicochemical; details: ^212Pb-labeled, 37 °C, n = 1
Description: The ^203Pb-labeled compounds (~ 2 MBq) or the ^212Pb-labeled compounds (~ 70 kBq) were incubated in 300 µL of phosphate buffered saline (PBS; 0.1 M, pH 7.4) or mouse serum at 37 °C. The stability of the radiolabeled peptides was monitored at 1, 4, and 24 h post-incubation. The samples in PBS were directly analyzed by radio-HPLC without any pretreatment. However, samples of mouse serum were mixed with an equal volume of acetonitrile to precipitate the proteins. The solution was centrifuged twice for 5 min at 13,000 rpm, and the supernatant was analyzed by radio-HPLC using Method 1 for lead-203 and Method 2 for lead-212.

[2] = Biodistribution study with lead-212; type: in vivo, mouse; details: mouse, intravenous; for tissue uptake at 1 h: 1 h p.i.; for tissue uptake at 4 h: 4 h p.i.
Description: (§1) Six-week-old male Balb/c nu/nu-specific and opportunistic pathogen-tree (SOPF) mice (Janvier Labs, Le Genest-Saint-Isle, France) were housed in individually ventilated cages, with four mice per cage. Upon arrival, the mice were acclimated for 1 week with access to food and water ad libitum. Mice were subcutaneously inoculated on the right shoulder with NCI-H69 cells (5 × 10^6 cells suspended in 100 μL of 1/3 Matrigel (Corning Inc.; Corning, NY, USA) and 2/3 Hank’s balanced salt solution (Gibco; Paisley, UK). NCI-H69 xenografts were allowed to grow for 3 weeks. Tumor sizes were 391 ± 173 mm^3 at the start of the studies.
(§2) Biodistribution studies were performed to determine tumor and organ uptake of [^212Pb]Pb-DOTAM-TATE, [^212Pb]Pb-eSOMA-01, and [^212Pb]Pb-eSOMA-02. Animals (n = 4 for each time point) were injected intravenously (i.v.) with an average of 100 kBq/0.5 nmol. At 3 selected time points (1, 4, and 24 h) p.i., blood was collected via retro-orbital puncture under isoflurane/O2 anesthesia, after which the mice were sacrificed via cervical dislocation. The tumor and organs of interest (heart, lungs, liver, spleen, stomach, large intestine, small intestine, pancreas, kidneys, muscle, skin, and bone) were excised, washed in PBS, and blotted dry. To confirm receptor specificity of radioligand uptake, mice (n = 3) were co-injected with an excess (25 nmol) of the respective unlabeled peptide, and uptake in the organs of interest was determined at 24 h p.i. To determine the total injected radioactivity per animal, a calibration curve with lead-212 was established using the gamma counter. The percentage of injected dose per gram (% ID/g) was determined for each tissue sample and corrected for both the injected volume and the % ID present at the injection site (the tail).

[3] = test system: H69-xenograft Balb/c nu/nu mice; test: Biodistribution study with lead-212; type: in vivo, mouse; details: for Stomach uptake: 1 h p.i.
Description: as §1, §2

CD-1 mice = details: cited from earlier work; for Pancreas uptake: CD-1 mice
kidney uptake = details: in vivo; cited from earlier work
[4] = test system: H69-tumor xenograft and organs; test: Dosimetry (absorbed dose from 212Pb biodistribution, RADAR mouse phantom); type: in vivo; details: based on MTD to the kidneys of 18–23 Gy
Description: Single exponential curves were fitted through the organ biodistribution time-activity data using Graphpad Prism. […] The absorbed doses were calculated with the MIRD equation D=∑sms×[TIACs]×S(t←s) , with ms being the source organ mass. A relative biological effect (RBE) of 5 was assumed for the alpha-radiation [47]. The uncertainty propagation in the dosimetry result was calculated [48].

[5] = blood, 100 kBq, n = 4, read-out: Blood uptake
[6] = bone, 100 kBq, n = 4, read-out: Bones uptake
[7] = heart, 100 kBq, n = 4, read-out: Heart uptake
[8] = intestines, 100 kBq, n = 4, read-out: Intestines uptake
[9] = intestines, 100 kBq, 24 h p.i., n = 4, read-out: Intestines uptake
[10] = kidneys, 100 kBq, n = 4, read-out: Kidneys uptake
[11] = kidneys, 100 kBq, 24 h p.i., n = 4, read-out: Kidneys uptake
[12] = kidneys, 24 h block: co-injection of excess (25 nmol) unlabeled peptide, read-out: Kidneys uptake
[13] = liver, 100 kBq, n = 4, read-out: Liver uptake
[14] = liver, 100 kBq, 24 h p.i., n = 4, read-out: Liver uptake
[15] = liver, 24 h block: co-injection of excess (25 nmol) unlabeled peptide, read-out: Liver uptake
[16] = lungs, 100 kBq, n = 4, read-out: Lungs uptake
[17] = lungs, 100 kBq, 24 h p.i., n = 4, read-out: Lungs uptake
[18] = pancreas, 100 kBq, n = 4, read-out: Pancreas uptake
[19] = skin, 100 kBq, n = 4, read-out: Skin uptake
[20] = spleen, 100 kBq, n = 4, read-out: Spleen uptake
[21] = stomach, 100 kBq, n = 4, read-out: Stomach uptake
[22] = stomach, 100 kBq, 24 h p.i., n = 4, read-out: Stomach uptake
[23] = stomach, 24 h block: co-injection of excess (25 nmol) unlabeled peptide, read-out: Stomach uptake
[24] = tumor, 100 kBq, n = 4, read-out: Tumor uptake
[25] = tumor, 100 kBq, 24 h p.i., n = 4, read-out: Tumor uptake

C[C@@H](O)[C@H](NC(=O)[C@@H]1CSSC[C@H](NC(=O)[C@@H](Cc2ccccc2)NC(=O)CN2CCN(CC(N)=O)CCN(CC(N)=O)CCN(CC(N)=O)CC2)C(=O)N[C@@H](Cc2ccc(O)cc2)C(=O)N[C@H](Cc2c[nH]c3ccccc23)C(=O)N[C@@H](CCCCN)C(=O)N[C@@H]([C@@H](C)O)C(=O)N1)C(=O)O [[^212Pb]Pb-DOTAM-TATE, metal not drawn, reference compound]
Stability in PBS, intact labeled ligand ([1]; 1 h): 99%
Stability in PBS, intact labeled ligand ([1]; 4 h): 98%
Stability in PBS, intact labeled ligand ([1]; 24 h): 95%
tissue uptake at 1 h [2, 5]: 1.34 ± 0.53 %ID/g
tissue uptake at 4 h [2, 5]: 0.02 ± 0.03 %ID/g
tissue uptake at 1 h [2, 6]: 0.69 ± 0.02 %ID/g
tissue uptake at 1 h [2, 7]: 0.61 ± 0.34 %ID/g
tissue uptake at 1 h [2, 8]: 2.03 ± 0.63 %ID/g
tissue uptake at 4 h [2, 8]: 0.68 ± 0.08 %ID/g
tissue uptake at 24 h [2, 9]: 0.22 ± 0.04 %ID/g
tissue uptake at 1 h [2, 10]: 53.5 ± 4.18 %ID/g
tissue uptake at 4 h [2, 10]: 49.4 ± 2.92 %ID/g
tissue uptake at 24 h [2, 11]: 29.2 ± 5.11 %ID/g
tissue uptake at 24 h [2, 12]: 25.8 ± 9.18 %ID/g
tissue uptake at 1 h [2, 13]: 2.69 ± 0.18 %ID/g
tissue uptake at 4 h [2, 13]: 2.26 ± 0.3 %ID/g
tissue uptake at 24 h [2, 14]: 1.42 ± 0.17 %ID/g
tissue uptake at 24 h [2, 15]: 0.25 ± 0.46 %ID/g
tissue uptake at 1 h [2, 16]: 2.75 ± 0.52 %ID/g
tissue uptake at 4 h [2, 16]: 0.82 ± 0.36 %ID/g
tissue uptake at 24 h [2, 17]: 0.33 ± 0.11 %ID/g
tissue uptake at 1 h [2, 18]: 5.19 ± 0.84 %ID/g
tissue uptake at 4 h [2, 18]: 1.14 ± 0.13 %ID/g
tissue uptake at 24 h ([2]; pancreas, 100 kBq, 24 h p.i., n = 4, read-out: Pancreas uptake): 0.28 ± 0.06 %ID/g
tissue uptake at 1 h [2, 19]: 1 ± 0.38 %ID/g
tissue uptake at 4 h [2, 19]: 0.59 ± 0.21 %ID/g
tissue uptake at 1 h [2, 20]: 0.55 ± 0.21 %ID/g
tissue uptake at 4 h [2, 20]: 0.22 ± 0.06 %ID/g
tissue uptake at 1 h [2, 21]: 2.69 ± 0.53 %ID/g
tissue uptake at 4 h [2, 21]: 1.62 ± 0.5 %ID/g
tissue uptake at 24 h [2, 22]: 0.61 ± 0.18 %ID/g
tissue uptake at 24 h [2, 23]: 0.25 ± 0.28 %ID/g
tissue uptake at 1 h [2, 24]: 9.57 ± 3.05 %ID/g
tissue uptake at 4 h [2, 24]: 8.04 ± 3.26 %ID/g
tissue uptake at 24 h [2, 25]: 6.07 ± 1.28 %ID/g
tissue uptake ([2]; tumor, 100 kBq, time point not stated): 8 to 9 %ID/g
Stomach uptake ([3]; n = 4): 2.7 % ID/g
Tumor uptake ([3]; 4 h p.i., n = 4): ~ 9 % ID/g
Kidneys uptake ([3]; 24 h p.i., n = 4): 29 ± 6 % ID/g
Tumor uptake ([3]; 24 h p.i., n = 4): ~ 6 % ID/g
Pancreas uptake (CD-1 mice; 1 h, ref Tworowska et al.): 32 % ID/g
Kidney uptake (CD-1 mice; 1 h, ref Tworowska et al.): 21 % ID/g
Pancreas uptake (CD-1 mice; 4 h, ref Tworowska et al.): 15 % ID/g
Kidney uptake (CD-1 mice; 24 h, ref Tworowska et al.): 10 % ID/g
MTD (maximum tolerated absorbed dose) to the kidneys (CD-1 mice; mice): 18–23 Gy
Tumor uptake (CD-1 mice; ref Tworowska et al.): ~ 20 % ID/g
Reduction in kidney uptake (kidney uptake): 3 fold

C[C@@H](O)[C@H](NC(=O)[C@@H]1CSSC[C@H](NC(=O)[C@@H](Cc2ccccc2)NC(=O)[C@H]2CC[C@H](CNC(=O)CN3CCN(CC(N)=O)CCN(CC(N)=O)CCN(CC(N)=O)CC3)CC2)C(=O)N[C@@H](Cc2ccc(O)cc2)C(=O)N[C@H](Cc2c[nH]c3ccccc23)C(=O)N[C@@H](CCCCN)C(=O)N[C@@H]([C@@H](C)O)C(=O)N1)C(=O)O [[^212Pb]Pb-eSOMA-01, metal not drawn]
Stability in PBS, intact labeled ligand ([1]; 1 h): 99%
Stability in PBS, intact labeled ligand ([1]; 4 h): 97%
Stability in PBS, intact labeled ligand ([1]; 24 h): 94%
tissue uptake at 1 h [2, 5]: 1.8 ± 0.37 %ID/g
tissue uptake at 1 h [2, 6]: 1.75 ± 0.44 %ID/g
tissue uptake at 4 h [2, 6]: 0.14 ± 0.09 %ID/g
tissue uptake at 1 h [2, 7]: 0.71 ± 0.33 %ID/g
tissue uptake at 1 h [2, 8]: 2.12 ± 0.39 %ID/g
tissue uptake at 4 h [2, 8]: 0.97 ± 0.12 %ID/g
tissue uptake at 24 h [2, 9]: 0.23 ± 0.02 %ID/g
tissue uptake at 24 h ([2]; intestines, 24 h block: co-injection of excess (25 nmol) unlabeled peptide, read-out: Intestines uptake): 0.06 ± 0.04 %ID/g
tissue uptake at 1 h [2, 10]: 78.8 ± 12.1 %ID/g
tissue uptake at 4 h [2, 10]: 39.6 ± 4.95 %ID/g
tissue uptake at 24 h [2, 11]: 22 ± 4.06 %ID/g
tissue uptake at 24 h [2, 12]: 17.8 ± 3.85 %ID/g
tissue uptake at 1 h [2, 13]: 4.72 ± 0.53 %ID/g
tissue uptake at 4 h [2, 13]: 2.73 ± 0.49 %ID/g
tissue uptake at 24 h [2, 14]: 1.7 ± 0.31 %ID/g
tissue uptake at 24 h [2, 15]: 1.07 ± 0.14 %ID/g
tissue uptake at 1 h [2, 16]: 4.05 ± 0.69 %ID/g
tissue uptake at 4 h [2, 16]: 1.38 ± 0.54 %ID/g
tissue uptake at 24 h [2, 17]: 0.44 ± 0.2 %ID/g
tissue uptake at 1 h ([2]; muscle, 100 kBq, n = 4, read-out: Muscle uptake): 0.22 ± 0.51 %ID/g
tissue uptake at 1 h [2, 18]: 7.86 ± 0.43 %ID/g
tissue uptake at 4 h [2, 18]: 1.72 ± 0.16 %ID/g
tissue uptake at 1 h [2, 19]: 2.23 ± 0.26 %ID/g
tissue uptake at 4 h [2, 19]: 0.17 ± 0.74 %ID/g
tissue uptake at 1 h [2, 20]: 0.98 ± 0.28 %ID/g
tissue uptake at 4 h [2, 20]: 0.23 ± 0.12 %ID/g
tissue uptake at 1 h [2, 21]: 7.08 ± 0.28 %ID/g
tissue uptake at 4 h [2, 21]: 2.51 ± 1.51 %ID/g
tissue uptake at 24 h [2, 22]: 0.87 ± 0.53 %ID/g
tissue uptake at 24 h [2, 23]: 0.05 ± 0.01 %ID/g
tissue uptake at 1 h [2, 24]: 16.1 ± 2.31 %ID/g
tissue uptake at 4 h [2, 24]: 10.9 ± 3.81 %ID/g
tissue uptake at 24 h [2, 25]: 6.83 ± 1.28 %ID/g
More tumor uptake than [212Pb]Pb-eSOMA-02 ([3]; 1 h and 24 h, p < 0.05): 61%
Stomach uptake ([3]; n = 4): 7.1 % ID/g
Tumor uptake ([3]; 4 h p.i., n = 4): ~ 9 % ID/g
Tumor uptake ([3]; 24 h p.i., n = 4): ~ 6 % ID/g
Maximum dose injected into mice [4]: around 0.2 MBq
